# Data: publication PMC8080777, “Discovery, optimization, and evaluation of non-bile acid FXR/TGR5 dual agonists” (Scientific Reports, 2021)
# How the values were obtained:
# CYP7A1 = assay: In vivo FXR assay: CYP7A1 in mice liver by real-time PCR; settings: CDAHFD-fed C57BL/6J mice, single oral dose 30 and 10 mg/kg, liver four hours after administration
# Experimental: Test compounds were orally administered to 7-week old male C57BL/6J mice (Nippon Charles River Co., Ltd., Yokohama City, Kanagawa, Japan), that were administered CDAHFD (#A06071302, Research Diets, 20 Jules Lane, New Brunswick, NJ, USA) consisting 60 kcal% fat and 0.1% methionine by weight for 7 days. After four hours of administration, the liver was removed, and total RNA was extracted using a Pure Link RNA Mini Kit (Invitrogen, Thermo Fisher Scientific K. K., Minato-ku, Tokyo, Japan). The concentration of total RNA was measured using Micro Sample Spectrophotometer (SimpliNano, GE Healthcare UK Ltd, Amersham Place Little Chalfont Buckinghamshire, HP7 9NA UK), and cDNA was synthesized using ReverTra Ace qPCR RT Master Mix (Toyobo Co., Ltd., Osaka City, Osaka, Japan). Real-time PCR was performed using a CFX96 Touch Real-Time PCR Analysis System (CFX Manager, Bio-Rad, 1000 Alfred Nobel Drive, Hercules, CA, USA), and the mRNA expression levels of SHP and CYP7A1, the target genes of FXR, were measured using the intercalator method.
# S4. In vitro, in vivo assay, and selectvity.
# To directly evaluate the in vitro agonist activity towards FXR, test compounds were evaluated in CHO cells transfected with FXR responsive luciferase reporter (Nuclear Receptor & In Vitro Toxicology Solutions, Indigo Biosciences, State College, PA, USA). […]
# OGTT blood glucose = assay type: in vivo; settings: single oral 100 mg/kg, overnight-fasted C57 mice, 2 g/kg glucose one hour later, blood 15 min after loading
# Experimental: To measure blood glucose levels, 100 mg/kg of test compounds 20p and 20q or vehicle were administered orally to overnight-fasted C57 mice (n = 5 mice/group, control; n = 10). One hour later, all mice were challenged with 2 g/kg glucose, and blood samples were collected after 15 min of glucose loading. The blood glucose levels were measured using LabAssay Glucose (FUJIFILM Wako Pure Chemical Corporation, Osaka City, Osaka, Japan)[56].
# Amersham Place Little Chalfont Buckinghamshire, HP7 9NA UK), and cDNA was synthesized using ReverTra Ace qPCR RT Master Mix (Toyobo Co., Ltd., Osaka City, Osaka, Japan). Real-time PCR was performed using a CFX96 Touch Real-Time PCR Analysis System (CFX Manager, Bio-Rad, 1000 Alfred Nobel Drive, Hercules, CA, USA), and the mRNA expression levels of SHP and CYP7A1, the target gene s of FXR, were measured using the intercalator […]
# In vivo assay protocol (GLP-1)
# Measurement of GLP-1 secretion: To measure plasma GLP-1 levels, 100 mg/kg of compounds 20p and 20q were administered orally to overnight -fasted C57 mice (n=5 animals/group). One hour later, all mice were challenged with 2 g/kg glucose, and blood samples were collected after 15 min of glucose challenge test. Plasma GLP-1 levels were measured using the GLP-1 ELISA Kit Wako, High Sensitive (FUJIFILM Wako Pure Chemical Corporation, Osaka city, Osaka, […]
# In vivo assay protocol (OGTT test) […]
Compound,Repression of CYP7A1 in the liver (CYP7A1),Blood glucose level on OGTT (OGTT blood glucose)
COc1cc(Cl)cc(N(CC23CCC(c4ccc(OC)c(C#N)c4)(CC2)CC3)C(=O)c2ccncc2C)c1 [Compound 20p],decreased CYP7A1 in the liver,robustly lowered the blood glucose level
COc1ccc(C23CCC(CN(C(=O)c4ccncc4C)c4cc(Cl)cc(Cl)c4)(CC2)CC3)cc1C#N [Compound 20q],decreased CYP7A1 in the liver,did not reduce the blood glucose level
